Our source for the IC50 values is PubChem BioAssay AID588565 (Sanford-Burnham Center for Chemical Genomics, 2011).

The source made the active and inactive calls.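 The calls were made as follows: active = cytotoxic at 24 hours, with mean IC50 of 20 µM or lower; inactive = the rest.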

This assay has as its system CHO-XBP1 cytotoxicity, ATPlite luminescence, 24 h. Put plainly: CHO-XBP1 cell viability loss – 24 h exposure, ATPlite luminescence, cytotoxicity control for UPR adaptive arm activator project, SAR follow-up (AID 588565). Background: ATP-based viability assays read luminescence as a measure of living cells.
`O=C(Nc1ccc(Cl)cc1)c1cc(-c2ccncc2)nc2ccccc12`: the IC50 is 64 µM (inactive).
For `O=C(Nc1ccc(F)cc1)c1cc(-c2ccncc2)nc2ccccc12` the value was > 80 µM (inactive); for `O=C(Nc1ccc(Br)c(C(F)(F)F)c1)c1cc(-c2ccncc2)nc2ccccc12`, > 80 µM (inactive); for `O=C(Nc1ccc(C(F)(F)F)cc1)c1cc(-c2ccncc2)nc2ccccc12`, > 80 µM (inactive).
Next, `Cc1nc(Nc2nc(-c3ccccc3)cc(=O)[nH]2)nc2ccccc12`: > 80 µM (inactive); `Cc1ccc(NC(=O)c2cc(-c3ccncc3)nc3ccccc23)cc1`: > 80 µM (inactive); `Cc1cc(Br)cc(NC(=O)c2cc(-c3ccncc3)nc3ccccc23)c1`: > 80 µM (inactive).

Usually IC50 stands for the midpoint of a concentration-inhibition curve.
